# Data from patent publication US9144573B2, “Prostaglandin transporter inhibitors” (Albert Einstein College of Medicine of Yeshiva University, priority 2006, dated 2015).
# Entries after “also recorded” stand apart in the source; their conditions may differ.
# Columns and labels:
# [1] = biological target: T1, prostaglandin transporter (PGT) (Rattus norvegicus, UniProt Q00910); assay: PGE2 uptake by MDCK cells stably expressing PGT; type: cell-based; conditions: for inhibition at 5 µM: MDCK, read-out: % Inhib. at 5 μM
# T1 construct: GFP; expressed in transfected cells
# Protocol: MDCK or 3T3 cells were seeded at 15-20% confluence on 24-well plates. The day on which the cells were seeded was considered day 1. PGE2 uptake experiments were conducted on day 4. All of the PGE2 uptake experiments were conducted at room temperature. On day 4, cells were washed twice with Waymouth buffer (135 mM NaCl, 13 mM H-Hepes, 13 mM Na-Hepes, 2.5 mM CaCl2, 1.2 mM MgCl2, 0.8 mM MgSO4, 5 mM KCl, and 28 mM D-glucose). Then 200 μL of Waymouth buffer containing [^3H]PGE2 was added to each well. At the designated time, the uptake of [^3H]PGE2 was stopped by aspiration of uptake buffer; this was followed by immediate washing twice with 500 μL of chilled Waymouth buffer. Cells were then lysed with 100 μL lysis buffer containing 0.25% SDS and 0.05 N NaOH. 1.5 mL of scintillation solution was added to each well, and intracellular [^3H]PGE2 was counted by MicroBeta Counter.
# For preliminary screening of the compounds, 25 μL of Waymouth buffer containing small organic compounds were added to each well; this was immediately followed by the addition of 175 μL of Waymouth buffer containing [^3H]PGE2. In each well, the total volume of uptake medium was 200 μL. Organic compounds were first dissolved in DMSO and then diluted in Waymouth buffer. The percent inhibition of [^3H]PGE2 uptake by compounds was calculated as [(uptakevehicle−uptakeinhibitor)÷(uptakevehicle)]×100.
# The initial velocities at various initial extracellular concentrations of PGE2 were determined from the PGE2 uptake in the first 2 minutes; these were linear over the time course of PGE2 uptake. Ki values were obtained by curve fitting the reciprocal of initial velocities of PGE2 uptake versus the reciprocal of extracellular PGE2 concentrations at various concentrations of the inhibitors. At low PGE2 concentrations, the extracellular concentrations were taken as ^3H labeled PGE2, which has a specific activity of 500 μCi/mol. At high concentrations of PGE2, a mixture of ^3H labeled and unlabeled PGE2 was made to a final specific activity of 25 μCi/mol.
# MDCK cells = type: cell-based, Canine
# Protocol: We used TGBz T34 to further isolate the efflux process of PGE2. […] The intracellular concentrations of PGE2 at different time points were calculated by dividing the total amount of intracellular PGE2 on the dish by the total volume of cells, based on cell number counts and published individual cell volume (Schneider et al., 2000; Hill et al., 2004). Since the addition of inhibitor involved removing extracellular tracer PGE2, the intracellular PGE2 concentration at the point of inhibitor addition approximates the outwardly-directed PGE2 gradient.
# This linearity held true even when the intracellular PGE2 concentration was extended to almost 800 nM, i.e. 10 fold the Km of PGT for PGE2 (data not shown). From the slope of the relationship, we generated a range of permeability coefficients for PGE2 efflux of 1.2 to 5.3×10^−6 cm/sec, based on the range of MDCK cell volumes reported in the literature (Schneider et al., 2000; Hill et al., 2004). […] The ratio of the influx-to-efflux permeability coefficients was thus in the range 2.7 to 117.
# [2] = Table 1, PGE2 uptake, MDCK cells expressing PGT
SMILES,inhibition at 5 µM [1] [%],Ki ([1]; Table 2) [µM],also measured
[N-]=[N+]=NCCOCCOCCNC(=O)c1ccc(Nc2nc(NCCCCc3ccccc3)nc(NCCOCCOCCNC(=O)c3ccccc3)n2)cc1 [T22A],72,,
[N-]=[N+]=NCCOCCOCCNC(=O)c1ccc(Nc2nc(NCCOCCOCCNC(=O)c3ccccc3)nc(NCCc3ccc(F)cc3)n2)cc1 [T18A],76,,
[N-]=[N+]=NCCOCCOCCNC(=O)c1ccc(Nc2nc(NCCOCCOCCNC(=O)c3ccccc3)nc(NCc3ccccc3)n2)cc1 [T14A],56,,
[N-]=[N+]=NCCOCCOCCNC(=O)c1ccc(Nc2nc(NCCOCCOCCNC(=O)c3ccccc3)nc(Nc3ccccc3)n2)cc1 [T28A],84,3.6,
CCCNc1nc(NCCOCCOCCNC(=O)c2ccccc2)nc(Nc2ccc(C(=O)NCCOCCOCCN=[N+]=[N-])cc2)n1 [T03A],54,,
CCCCCCCNc1nc(NCCOCCOCCNC(=O)c2ccccc2)nc(Nc2ccc(C(=O)NCCOCCOCCN=[N+]=[N-])cc2)n1 [T07A],74,,
CC(C)CCNc1nc(NCCOCCOCCNC(=O)c2ccccc2)nc(Nc2ccc(C(=O)NCCOCCOCCN=[N+]=[N-])cc2)n1 [T08A],64,,
[N-]=[N+]=NCCOCCOCCNC(=O)c1ccc(Nc2nc(NCCOCCOCCNC(=O)c3ccccc3)nc(Nc3ccc(F)cc3)n2)cc1 [T25A],82,3.9,
"CCCCC[C@H](O)/C=C/[C@H]1[C@H](O)CC(=O)[C@@H]1C/C=C\CCCC(=O)O [PGE2, prostaglandin E2]",,,permeability coefficient for PGE2 efflux (MDCK cells): 1.2-5.3 ×10^−6 cm/sec; permeability coefficient for PGE2 influx (by simple diffusion) (MDCK cells): 0.45 ×10⁻⁶ cm/s; ratio of the influx-to-efflux permeability coefficients (MDCK cells): 2.7-117
[N-]=[N+]=NCCOCCOCCNC(=O)c1ccc(Nc2nc(NCCCc3ccccc3)nc(NCCOCCOCCNC(=O)c3ccccc3)n2)cc1 [T21A],72,,

# Further lines, with some results ahead:
inhibition at 5 µM [1] [%],Ki ([1]; Table 2) [µM],SMILES,also measured
65,6.2,[N-]=[N+]=NCCOCCOCCNC(=O)c1ccc(Nc2nc(NCCOCCOCCNC(=O)c3ccccc3)nc(NCCc3ccc(O)cc3)n2)cc1 [T41],"Ki [1, 2]: 6.2 ± 0.7 µM"
84,3.7,[N-]=[N+]=NCCOCCOCCNC(=O)c1ccc(Nc2nc(NCCOCCOCCNC(=O)c3ccccc3)nc(NCCc3ccccc3)n2)cc1 [T34],"Ki ([1]; 0 min pre-incubation, separate experiments): 1.22 µM; intracellular PGE2 after addition of inhibitor at peak level ([1]; 25 μM added at 9 minutes): rapid depletion of intracellular PGE2; time for intracellular PGE2 to fall to baseline ([1]; 25 μM added at peak (9 minutes)): ≤ 5 min; inhibition of PGE2 transport by PGT ([1]; 25 μM, added at the beginning of uptake, listed as TGBz T34): overshoot phenomenon completely disappeared; also recorded: full inhibition; Ki ([1]; 10 min pre-incubation): 1.63 µM; Ki ([1]; 20 min pre-incubation): 1.41 µM; Ki [1, 2]: 3.7 ± 0.2 µM; mode of inhibition ([1]; double reciprocal analysis): competitive inhibitor; Ki ([1]; double-reciprocal plots, PGE2 varied at 0, 3, 6 μM inhibitor): 3.7 ± 0.2 µM"
